In patent US12303474B2, “S-enantiomerically enriched compositions of beta blockers for treating amyotrophic lateral sclerosis” (priority 2013, dated 2025):
“Also recorded” adds a separate entry of the source. Where two headings read alike, the source gives them in different places. Marks after values point to notes of the source that are not given here.

Tests used:
[1] = system: G93A SOD1 B6SJL hybrid (G93A) model; assay: Disease progression score (JAX SOP) in G93A SOD1 transgenic mice
From the text: The disease progression score is based on the JAX SOP (Ludolph A C, Bendotti C, Blaugrund E, Hengerer B, Loffler J P, Martin J, Meininger V, Meyer T, Moussaoui S, Robberecht W, Scott S, Silani V, Van Den Berg L H (ENMC Group For The Establishment Of Guidelines For The Conduct Of Preclinical And Proof Of Concept Studies In ALS/MND Models). 2007, which is incorporated by reference).

[2] = system: G93A SOD1 B6SJL hybrid (G93A) model;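 for HR (hazard ratio) survival vs placebo, FIG. 2: dosing began after ALS onset in G93A SOD1 mice, with survival as the endpoint, defined humanely as the animal failing to regain upright posture within 30 s when placed sideways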;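 for percent survival, comparison in words (FIGS. 2-4): dosing began after ALS onset in G93A SOD1 mice, with survival as the endpoint, defined humanely as the animal failing to regain upright posture within 30 s when placed sideways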
From the text: To study the effect of S-oxprenolol on survival, survival was monitored over time.

[3] = system: G93A SOD1 B6SJL hybrid (G93A) model; settings: for Heart / gastrocnemius: end of study;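 for HR (hazard ratio) survival vs placebo, FIG. 2: dosing began after ALS onset in G93A SOD1 mice, with survival as the endpoint, defined humanely as the animal failing to regain upright posture within 30 s when placed sideways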;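 for percent survival, comparison in words (FIGS. 2-4): dosing began after ALS onset in G93A SOD1 mice, with survival as the endpoint, defined humanely as the animal failing to regain upright posture within 30 s when placed sideways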
Protocol: (§1) Transgenic mice over-expressing a high copy number (25 copies) of mutated human SOD1 gene with a G93A point mutation, i.e., B6SJL-TgN [SOD1-G93A]1 Gur (G1H-G93A transgenic mice, JR2726; Hemizygote) (Gurney M E, et al., Science, 264, 1772-1775, 1994) (“G93A SOD1 B6SJL hybrid (G93A) model”), were used.
To study the effect of the test compounds on skeletal muscle atrophy, the skeletal muscle mass were determined at the end of the study.
The number of all mice in the population is indicated as “n” in at the bottom of FIGS. 21A-21C.
The number of all mice in the population is indicated as “n” in at the bottom of FIGS. 20D-20F.
The number of all mice in the population is indicated as “n” in at the bottom of FIGS. 21G-21I.

[4] = system: G93A SOD1 B6SJL hybrid (G93A) model; assay: Body weight and body composition (lean mass, fat mass; NMR scans) in G93A SOD1 transgenic mice; assay type: in vivo; settings: for Average Δ body weight / Average Δ fat mass / Average Δ lean mass: per day alive after disease onset
From the text: as §1
[…] […] There were 16 mice in the S-oxprenolol group.
The primary endpoint was survival, humanely defined as the ability of the animal to right itself in 30 seconds after being laid on its side. Secondary endpoints were body weight, body composition, spontaneous activity and food intake. Body weight of the animals was assessed weekly until onset of disease. Additionally, body composition (fat mass and lean body mass) was assessed using NMR scans (EchoMRI-100, Echo Medical Systems, Houston, USA) every 4 days. After onset of disease, body weight and body composition were assessed every two days until the end of the study. All personal handling the animals was strictly blinded to the randomized treatment allocation.
To study the effect of S-oxprenolol on body weight, body weight was monitored over time.
To study the effect of the test compounds on lean body mass, lean mass was determined at the end of the study.
To study the effect of the test compounds on fat mass, the fat mass were determined at the end of the study.
To study the effect of S-oxprenolol on body weight, body weight was monitored over time. […] The number of all mice in the population is indicated as “n” in at the bottom of FIGS. 20A-20C.
To study the effect of the test compounds on lean body mass, lean mass was determined at the end of the study. […] The number of all mice in the population is indicated as “n” in at the bottom of FIGS. 20D-20F.
To study the effect of the test compounds on fat mass, the fat mass were determined at the end of the study. […] The number of all mice in the population is indicated as “n” in at the bottom of FIGS. 20G-20I.

[5] = 20 mg/kg/day vs. S-Oxprenolol (20)
[6] = 10 mg/kg/day, S-pindolol 3 mg/kg/day

SMILES: C=CCOc1ccccc1OC[C@@H](O)CNC(C)C [S-oxprenolol, (S)-1-(2-(allyloxy)phenoxy)-3-(isopropylamino)propan-2-ol]
- HR Progression from score 1 to score 2 (FIG. 17) ([1]; 10 mg/kg/day vs. placebo): 0.56
- HR Progression from score 1 to score 3 (FIG. 19) ([1]; 10 mg/kg/day vs. placebo): 0.73
- HR Progression from score 2 to score 3 (FIG. 18) ([1]; 10 mg/kg/day vs. placebo): 1.07
- HR Progression from score 1 to score 2 (FIG. 17) [1, 5]: 1.17
- HR Progression from score 1 to score 3 (FIG. 19) [1, 5]: 1.48
- HR Progression from score 2 to score 3 (FIG. 18) [1, 5]: 1.20
- HR Progression from score 1 to score 2 (FIG. 17) ([1]; 20 mg/kg/day vs. placebo): 0.51
- HR Progression from score 1 to score 3 (FIG. 19) ([1]; 20 mg/kg/day vs. placebo): 0.47
- HR Progression from score 2 to score 3 (FIG. 18) ([1]; 20 mg/kg/day vs. placebo): 0.64
- percent survival, comparison in words (FIGS. 2-4) ([2]; 10 mg/kg/day): longer survival than those in the placebo group; also recorded: significantly superior to either placebo or S-pindolol at its preferred dose; also recorded: significantly superior to either placebo or the other compounds
- HR (hazard ratio) survival vs placebo, FIG. 2 ([2]; 10 mg/kg/day, 95% CI: 0.171-0.88, p=0.0241): 0.39
- Median survival ratio vs placebo ([2]; 10 mg/kg/day, 95% CI: 0.83-1.81): 1.32
- Median survival after onset of ALS symptoms ([2]; 10 mg/kg/day, placebo 28 days): 37 days
- survival, days after onset ([2]; 10 mg/kg/day, placebo 42 days): 56 days
- survival improved compared to placebo treated mice ([2]; G93A mice, 10 mg/kg/day after onset of ALS): about 33%
- percent survival, comparison in words (FIG. 14) ([2]; all mice, 20 mg/kg/day): longer survival than other groups
- HR survival (FIG. 14) ([2]; all mice, 10 mg/kg/day vs. placebo): 0.71
- HR survival (FIG. 14) ([2]; all mice, 20 mg/kg/day vs. placebo): 0.45
- percent survival, comparison in words (FIG. 16) ([2]; female mice, 20 mg/kg/day): longer survival than other groups
- HR survival (FIG. 16) ([2]; female mice, 10 mg/kg/day vs. placebo): 0.96
- HR survival (FIG. 16) ([2]; female mice, 20 mg/kg/day vs. placebo): 0.53
- percent survival, comparison in words (FIG. 15) ([2]; male mice, 20 mg/kg/day): longer survival than other groups
- HR survival (FIG. 15) ([2]; male mice, 10 mg/kg/day vs. placebo): 0.46
- HR survival (FIG. 15) ([2]; male mice, 20 mg/kg/day vs. placebo): 0.39
- gastrocnemius weight over days after onset, in words (FIG. 9) ([3]; 10 mg/kg/day): steady
- tibialis anterior muscle weight over days after onset, in words (FIG. 11) ([3]; 10 mg/kg/day): steady
- correlation R of tibialis anterior muscle weight with days after onset (=survival), FIG. 11 ([3]; 10 mg/kg/day, p=0.72, placebo R: −0.67): 0.15
- correlation R of gastrocnemius weight with days after onset (=survival), FIG. 9 ([3]; 10 mg/kg/day, p=0.94, placebo R: −0.56): −0.03
- BAT (brown adipose tissue) ([3]; all mice, 10 mg/kg/d): 46.8 ± 3.5 mg
- EDL (extensor digitorum longus) ([3]; all mice, 10 mg/kg/d): 7.18 ± 0.34 mg
- soleus ([3]; all mice, 10 mg/kg/d): 5.89 ± 0.35 mg
- Heart ([3]; all mice, 10 mg/kg/d): 108.6 ± 5.8 mg
- gastrocnemius ([3]; all mice, 10 mg/kg/d): 55.1 ± 4.0 mg
- BAT (brown adipose tissue) ([3]; all mice, 20 mg/kg/d): 43.7 ± 2.3 mg
- EDL (extensor digitorum longus) ([3]; all mice, 20 mg/kg/d): 7.791 ± 0.29*^+++ mg
- soleus ([3]; all mice, 20 mg/kg/d): 6.42 ± 0.39 mg
- Heart ([3]; all mice, 20 mg/kg/d): 104.1 ± 3.5 mg
- gastrocnemius ([3]; all mice, 20 mg/kg/d): 50.1 ± 2.9 mg
- BAT (brown adipose tissue) ([3]; female mice, 10 mg/kg/d): 39.4 ± 4.2 mg
- EDL (extensor digitorum longus) ([3]; female mice, 10 mg/kg/d): 7.03 ± 0.51 mg
- soleus ([3]; female mice, 10 mg/kg/d): 5.71 ± 0.48 mg
- Heart ([3]; female mice, 10 mg/kg/d): 92.3 ± 3.2^p=0.064 mg
- gastrocnemius ([3]; female mice, 10 mg/kg/d): 50.5 ± 4.0*^p=0.060 ^vs propanolol mg
- BAT (brown adipose tissue) ([3]; female mice, 20 mg/kg/d): 37.1 ± 2.9 mg
- EDL (extensor digitorum longus) ([3]; female mice, 20 mg/kg/d): 7.29 ± 0.42*^$ mg
- soleus ([3]; female mice, 20 mg/kg/d): 6.15 ± 0.30 mg
- Heart ([3]; female mice, 20 mg/kg/d): 92.8 ± 3.0 mg
- gastrocnemius ([3]; female mice, 20 mg/kg/d): 46.2 ± 3.9 mg
- BAT (brown adipose tissue) ([3]; male mice, 10 mg/kg/d): 53.2 ± 5.0 mg
- EDL (extensor digitorum longus) ([3]; male mice, 10 mg/kg/d): 7.28 ± 0.47 mg
- soleus ([3]; male mice, 10 mg/kg/d): 6.04 ± 0.53 mg
- Heart ([3]; male mice, 10 mg/kg/d): 122.6 ± 8.8 mg
- gastrocnemius ([3]; male mice, 10 mg/kg/d): 59.1 ± 6.6 mg
- BAT (brown adipose tissue) ([3]; male mice, 20 mg/kg/d): 46.5 ± 3.0 mg
- EDL (extensor digitorum longus) ([3]; male mice, 20 mg/kg/d): 8.15 ± 0.39^$$$ mg
- soleus ([3]; male mice, 20 mg/kg/d): 6.58 ± 0.61 mg
- Heart ([3]; male mice, 20 mg/kg/d): 112.4 ± 4.5 mg
- gastrocnemius ([3]; male mice, 20 mg/kg/d): 53.1 ± 4.3 mg
- change in lean body mass, in words (FIG. 6) ([4]; 10 mg/kg/day, end of study): less change in lean body mass than those receiving a placebo
- change in fat mass per survival day after ALS onset, in words (FIG. 13) [4, 6]: less change in fat mass than those receiving S-pindolol
- change in lean body mass per survival day after ALS onset, in words (FIG. 7) [4, 6]: less change in lean body mass than those receiving S-pindolol
- change of body weight per survival day after ALS onset, in words (FIG. 5) [4, 6]: body weight loss that was close to those administered S-pindolol; also recorded: less body weight loss than those in the placebo group
- Wasting of lean mass reduced compared to placebo (FIG. 6) ([4]; 10 mg/kg/day, p=0.18): about 40%
- Δ body weight ([4]; all mice, 10 mg/kg/d): -5.4 ± 0.43 g
- Δ fat mass ([4]; all mice, 10 mg/kg/d): -1.26 ± 0.14 g
- Δ lean mass ([4]; all mice, 10 mg/kg/d): -3.31 ± 0.33 g
- Average Δ body weight ([4]; all mice, 10 mg/kg/d): -123 ± 11.6 mg/day
- Average Δ fat mass ([4]; all mice, 10 mg/kg/d): -29.4 ± 3.7 mg/day
- Average Δ lean mass ([4]; all mice, 10 mg/kg/d): -89.6 ± 9.1 mg/day
- Δ body weight ([4]; all mice, 20 mg/kg/d): -5.56 ± 0.47 g
- Δ fat mass ([4]; all mice, 20 mg/kg/d): -1.56 ± 0.18 g
- Δ lean mass ([4]; all mice, 20 mg/kg/d): -4.78 ± 0.41 g
- Average Δ body weight ([4]; all mice, 20 mg/kg/d): −99.4 ± 9.7^p=0.064 mg/day
- Average Δ fat mass ([4]; all mice, 20 mg/kg/d): -29.8 ± 3.6 mg/day
- Average Δ lean mass ([4]; all mice, 20 mg/kg/d): -93.3 ± 7.5 mg/day
- change in fat mass, in words (FIG. 12) ([4]; end of study, p>0.5): no effect on the loss of fat mass
- Δ body weight ([4]; female mice, 10 mg/kg/d): -4.51 ± 0.55 g
- Δ fat mass ([4]; female mice, 10 mg/kg/d): −1.17 ± 0.21^p=0.059 g
- Δ lean mass ([4]; female mice, 10 mg/kg/d): -3.99 ± 0.37 g
- Average Δ body weight ([4]; female mice, 10 mg/kg/d): -103.3 ± 16.1 mg/day
- Average Δ fat mass ([4]; female mice, 10 mg/kg/d): -25.9 ± 4.8 mg/day
- Average Δ lean mass ([4]; female mice, 10 mg/kg/d): -69.2 ± 10.8 mg/day
- Δ body weight ([4]; female mice, 20 mg/kg/d): -4.57 ± 0.55 g
- Δ fat mass ([4]; female mice, 20 mg/kg/d): -1.29 ± 0.17 g
- Δ lean mass ([4]; female mice, 20 mg/kg/d): -3.97 ± 0.49 g
- Average Δ body weight ([4]; female mice, 20 mg/kg/d): -82.0 ± 13.6 mg/day
- Average Δ fat mass ([4]; female mice, 20 mg/kg/d): −26.8 ± 4.4^+ mg/day
- Average Δ lean mass ([4]; female mice, 20 mg/kg/d): 90.7 ± 10.9 mg/day
- Δ body weight ([4]; male mice, 10 mg/kg/d): -6.57 ± 0.57 g
- Δ fat mass ([4]; male mice, 10 mg/kg/d): -1.44 ± 0.19 g
- Δ lean mass ([4]; male mice, 10 mg/kg/d): -3.67 ± 0.49 g
- Average Δ body weight ([4]; male mice, 10 mg/kg/d): -150.3 ± 14.5 mg/day
- Average Δ fat mass ([4]; male mice, 10 mg/kg/d): -33.6 ± 5.7 mg/day
- Average Δ lean mass ([4]; male mice, 10 mg/kg/d): -115.1 ± 13.9 mg/day
- Δ body weight ([4]; male mice, 20 mg/kg/d): -6.36 ± 0.67 g
- Δ fat mass ([4]; male mice, 20 mg/kg/d): -1.78 ± 0.28 g
- Δ lean mass ([4]; male mice, 20 mg/kg/d): -5.34 ± 0.56 g
- Average Δ body weight ([4]; male mice, 20 mg/kg/d): -115.7 ± 12.6 mg/day
- Average Δ fat mass ([4]; male mice, 20 mg/kg/d): -32.1 ± 5.4 mg/day
- Average Δ lean mass ([4]; male mice, 20 mg/kg/d): -95.8 ± 10.6 mg/day
